Test results: patent publication US8022206B2 (OSI Pharmaceuticals, LLC, priority 2008, dated 2011)

Legend:
[1] = biological target: RON (human) (Homo sapiens, UniProt Q04912); assay: RON (human) AlphaScreen kinase assay, Km of ATP; format: biochemical; conditions: AlphaScreen, Km of ATP; read-out: RON biochemical IC50
Outline: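 Detection used PT66 AlphaScreen beads added in Tris pH 7.5/NaCl/EDTA/BSA buffer, read after 1 h incubation. Vehicle-only DMSO wells served as controls.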

[2] = biological target: MET (human) (Homo sapiens, UniProt P08581); assay: MET (human) AlphaScreen kinase assay, Km of ATP; format: biochemical; conditions: AlphaScreen, Km of ATP; read-out: Met biochemical IC50
Outline: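 Human MET at lot-optimised concentration in 50 mM Tris pH 7.4 buffer with 1 mM DTT, compound at 1% DMSO final; enzyme starts the reaction, 60 min at RT.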

Chain of RON (human) (Q04912 25-1400): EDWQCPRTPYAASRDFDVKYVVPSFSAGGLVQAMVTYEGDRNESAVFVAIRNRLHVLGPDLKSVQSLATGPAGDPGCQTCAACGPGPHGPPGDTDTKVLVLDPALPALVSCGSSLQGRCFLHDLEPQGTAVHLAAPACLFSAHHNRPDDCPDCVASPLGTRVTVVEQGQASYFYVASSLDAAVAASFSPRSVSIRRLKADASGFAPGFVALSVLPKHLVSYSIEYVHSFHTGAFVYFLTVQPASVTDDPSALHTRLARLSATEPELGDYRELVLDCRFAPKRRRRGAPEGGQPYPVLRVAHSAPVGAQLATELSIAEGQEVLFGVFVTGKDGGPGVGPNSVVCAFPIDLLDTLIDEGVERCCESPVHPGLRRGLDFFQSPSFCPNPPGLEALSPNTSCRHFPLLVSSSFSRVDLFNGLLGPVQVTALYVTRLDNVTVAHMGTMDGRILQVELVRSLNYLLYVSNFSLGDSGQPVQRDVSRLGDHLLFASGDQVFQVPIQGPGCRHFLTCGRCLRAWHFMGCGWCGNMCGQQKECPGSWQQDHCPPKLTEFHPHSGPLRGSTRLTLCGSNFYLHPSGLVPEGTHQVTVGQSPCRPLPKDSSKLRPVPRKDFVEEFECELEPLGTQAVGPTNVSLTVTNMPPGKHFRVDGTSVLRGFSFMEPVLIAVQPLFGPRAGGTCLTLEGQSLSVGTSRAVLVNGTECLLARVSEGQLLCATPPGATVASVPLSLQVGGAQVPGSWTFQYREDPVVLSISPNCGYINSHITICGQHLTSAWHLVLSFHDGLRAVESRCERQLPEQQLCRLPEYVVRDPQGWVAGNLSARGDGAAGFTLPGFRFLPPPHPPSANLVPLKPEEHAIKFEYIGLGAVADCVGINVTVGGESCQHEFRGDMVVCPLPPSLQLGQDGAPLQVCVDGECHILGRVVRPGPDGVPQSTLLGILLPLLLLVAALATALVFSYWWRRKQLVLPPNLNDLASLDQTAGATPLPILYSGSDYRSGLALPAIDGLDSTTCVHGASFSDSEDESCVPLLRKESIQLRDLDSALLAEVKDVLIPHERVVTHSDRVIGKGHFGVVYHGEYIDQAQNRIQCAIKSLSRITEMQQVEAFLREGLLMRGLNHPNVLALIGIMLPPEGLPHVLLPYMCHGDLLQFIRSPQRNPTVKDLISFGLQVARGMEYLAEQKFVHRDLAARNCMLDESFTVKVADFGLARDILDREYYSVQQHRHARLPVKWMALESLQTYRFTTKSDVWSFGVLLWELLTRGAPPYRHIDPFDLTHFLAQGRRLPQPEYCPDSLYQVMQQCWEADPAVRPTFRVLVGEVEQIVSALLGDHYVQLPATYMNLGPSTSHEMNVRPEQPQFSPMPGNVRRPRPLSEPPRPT
Chain of MET (human) (P08581 25-1390): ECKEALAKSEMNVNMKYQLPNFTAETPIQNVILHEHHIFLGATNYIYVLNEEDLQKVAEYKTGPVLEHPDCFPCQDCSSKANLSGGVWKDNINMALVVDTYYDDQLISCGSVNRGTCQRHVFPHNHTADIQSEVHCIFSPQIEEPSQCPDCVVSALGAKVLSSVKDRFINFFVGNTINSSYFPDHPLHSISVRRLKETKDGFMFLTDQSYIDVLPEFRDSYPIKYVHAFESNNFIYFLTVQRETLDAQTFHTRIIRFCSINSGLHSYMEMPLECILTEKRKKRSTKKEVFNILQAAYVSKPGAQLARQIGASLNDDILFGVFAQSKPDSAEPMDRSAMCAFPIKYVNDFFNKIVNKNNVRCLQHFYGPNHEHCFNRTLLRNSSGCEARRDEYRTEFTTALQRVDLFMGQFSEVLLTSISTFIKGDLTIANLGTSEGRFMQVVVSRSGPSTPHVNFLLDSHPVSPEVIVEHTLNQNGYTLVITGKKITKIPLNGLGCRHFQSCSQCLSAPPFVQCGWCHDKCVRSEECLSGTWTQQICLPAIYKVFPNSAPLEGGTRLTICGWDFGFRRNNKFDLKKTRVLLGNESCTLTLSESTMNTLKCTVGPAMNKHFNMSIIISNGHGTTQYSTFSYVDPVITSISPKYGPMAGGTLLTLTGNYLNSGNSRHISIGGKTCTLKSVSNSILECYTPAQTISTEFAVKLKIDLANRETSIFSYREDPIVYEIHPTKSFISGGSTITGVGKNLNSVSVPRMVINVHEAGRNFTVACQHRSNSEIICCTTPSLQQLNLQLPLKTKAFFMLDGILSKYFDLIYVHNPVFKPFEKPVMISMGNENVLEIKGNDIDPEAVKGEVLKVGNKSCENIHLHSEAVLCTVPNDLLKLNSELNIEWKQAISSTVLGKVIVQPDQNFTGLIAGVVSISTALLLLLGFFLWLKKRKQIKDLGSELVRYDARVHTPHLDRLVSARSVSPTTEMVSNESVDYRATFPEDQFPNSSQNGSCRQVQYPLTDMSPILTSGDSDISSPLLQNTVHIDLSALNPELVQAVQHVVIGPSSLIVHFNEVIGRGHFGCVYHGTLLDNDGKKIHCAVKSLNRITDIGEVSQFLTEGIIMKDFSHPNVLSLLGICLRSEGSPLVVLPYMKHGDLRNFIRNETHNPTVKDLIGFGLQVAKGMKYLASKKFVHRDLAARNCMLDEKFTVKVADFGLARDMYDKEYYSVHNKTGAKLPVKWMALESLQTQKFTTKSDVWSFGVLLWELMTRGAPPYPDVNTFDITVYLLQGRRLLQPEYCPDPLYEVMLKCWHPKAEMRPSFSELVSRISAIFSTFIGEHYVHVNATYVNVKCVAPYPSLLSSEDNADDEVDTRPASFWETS

| Compound | IC50 [1] [nM] | IC50 [2] [nM] |
| --- | --- | --- |
| CC(C)CC(Oc1c(N)ncc2c(-c3cnn(C4CCNCC4)c3)coc12)c1c(Cl)ccc(F)c1Cl (stereo not drawn) [Example 366, 7-[1-(2,6-Dichloro-3-fluorophenyl)-3-methylbutoxy]-3-(1-piperidin-4-yl-1H-pyrazol-4-yl)furo[3,2-c]pyridin-6-ylamine] | 500 to 5000 | 500 to 5000 |
| C[C@@H](Oc1c(N)ncc2c(C(=O)N(C)C)coc12)c1c(Cl)ccc(F)c1Cl [Example 177, 6-Amino-7-[(R)-1-(2,6-dichloro-3-fluorophenyl)ethoxy]furo[3,2-c]pyridine-3-carboxylic acid dimethylamide] | 5000 to 20000 | 500 to 5000 |
| C[C@@H](Oc1c(N)ncc2c(C3=CCN(C(=O)[C@@H](N)Cc4ccccc4)CC3)coc12)c1c(Cl)ccc(F)c1Cl [Example 256, (2S)-2-Amino-1-[4-{6-amino-7-[(1R)-1-(2,6-dichloro-3-fluoro-phenyl)ethoxy]furo[3,2-c]pyridin-3-yl}-3,6-dihydropyridin-1(2H)-yl]-3-phenylpropan-1-one] | 500 to 5000 | < 500 |
| C[C@@H](Oc1c(N)ncc2c(-c3ccc(C(=O)NCCN4CCCC4)cc3)coc12)c1c(Cl)ccc(F)c1Cl [Example 101, 4-{6-Amino-7-[(R)-1-(2,6-dichloro-3-fluorophenyl)ethoxy]-furo[3,2-c]pyridin-3-yl}-N-(2-pyrrolidin-1-ylethyl)benzamide] | 500 to 5000 | < 500 |
| Cn1c(Cc2ccccc2)ncc(-c2ccc(COc3c(N)ncc4c(Br)coc34)cc2)c1=O [Example 465, 5-[4-(6-Amino-3-bromofuro[3,2-c]pyridin-7-yloxymethyl)phenyl]-2-benzyl-3-methyl-3H-pyrimidin-4-one] | 5000 to 20000 | 500 to 5000 |
| C[C@H](Oc1c(N)ncc2ccoc12)c1nnc2ccc(-c3ccccc3)nn12 [Example 475, 7-[(1S)-1-(6-phenyl[1,2,4]triazolo[4,3-b]pyridazin-3-yl)ethoxy]furo[3,2-c]pyridin-6-amine] | > 20000 | 5000 to 20000 |
| C[C@@H](Oc1c(N)ncc2c(-c3ccnc4ccccc34)coc12)c1c(Cl)ccc(F)c1Cl [Example 92, 7-[(R)-1-(2,6-Dichloro-3-fluorophenyl)ethoxy]-3-quinolin-4-ylfuro[3,2-c]pyridin-6-ylamine] | 5000 to 20000 | 500 to 5000 |
| Nc1ncc2c(-c3cnn(C4CCNCC4)c3)coc2c1OCCc1ccccc1 [Example 416, 7-Phenethyloxy-3-(1-piperidin-4-yl-1H-pyrazol-4-yl)furo[3,2-c]pyridin-6-ylamine] | 500 to 5000 | 500 to 5000 |
| COc1cccc(C(C)Oc2c(N)ncc3c(-c4cnn(C5CCNCC5)c4)coc23)c1 (stereo not drawn) [Example 345, 7-[1-(3-Methoxyphenyl)-ethoxy]-3-(1-piperidin-4-yl-1H-pyrazol-4-yl)furo[3,2-c]pyridin-6-ylamine] | 500 to 5000 | 500 to 5000 |
| COC(=O)c1cccc(C(C)Oc2c(N)ncc3c(-c4cnn(C5CCNCC5)c4)coc23)c1 (stereo not drawn) [Example 410, 3-{1-[6-Amino-3-(1-piperidin-4-yl-1H-pyrazol-4-yl)furo[3,2-c]pyridin-7-yloxy]ethyl}benzoic acid methyl ester] | 500 to 5000 | 500 to 5000 |
| C[C@@H](Oc1c(N)ncc2c(-c3cccc(NS(=O)(=O)c4ccccc4)c3)coc12)c1c(Cl)ccc(F)c1Cl [Example 243, N-(3-{6-Amino-7-[(R)-1-(2,6-dichloro-3-fluorophenyl)ethoxy]-furo[3,2-c]pyridin-3-yl}phenyl)benzenesulfonamide] | 5000 to 20000 | 500 to 5000 |
| C[C@@H](Oc1c(N)ncc2c(C3=CCOCC3)coc12)c1c(Cl)ccc(F)c1Cl [Example 138, 7-[(R)-1-(2,6-Dichloro-3-fluorophenyl)-ethoxy]-3-(3,6-dihydro-2H-pyran-4-yl)-furo[3,2-c]pyridin-6-ylamine] | 500 to 5000 | < 500 |
| C[C@@H](Oc1c(N)ncc2c(-c3ccc(N)cc3)coc12)c1c(Cl)ccc(F)c1Cl [Example 77, 3-(4-Aminophenyl)-7-[(R)-1-(2,6-dichloro-3-fluorophenyl)-ethoxy]furo[3,2-c]pyridin-6-ylamine] | 500 to 5000 | 500 to 5000 |
| C[C@@H](Oc1c(N)ncc2c(-c3ccc(O)cc3)coc12)c1c(Cl)ccc(F)c1Cl [Example 59, 4-{6-Amino-7-[(R)-1-(2,6-dichloro-3-fluorophenyl)ethoxy]-furo[3,2-c]pyridin-3-yl}phenol] | 500 to 5000 | 500 to 5000 |
| CC(Oc1c(N)ncc2c(-c3cnn(C4CCNCC4)c3)coc12)c1cccc(-c2ccccc2)c1 (stereo not drawn) [Example 444, 7-(1-Biphenyl-3-ylethoxy)-3-(1-piperidin-4-yl-1H-pyrazol-4-yl)furo[3,2-c]pyridin-6-ylamine] | 500 to 5000 | 500 to 5000 |
| Nc1ncc2c(-c3cnn(C4CCNCC4)c3)coc2c1O[C@@H](c1ccccc1)C(F)(F)F [Example 391, 3-(1-Piperidin-4-yl-1H-pyrazol-4-yl)-7-((S)-2,2,2-trifluoro-1-phenylethoxy)furo[3,2-c]pyridin-6-ylamine] | 500 to 5000 | < 500 |
| C[C@@H](Oc1c(N)ncc2c(C3=CCN(S(=O)(=O)c4ccccc4)CC3)coc12)c1c(Cl)ccc(F)c1Cl [Example 49, 3-(1-Benzenesulfonyl-1,2,3,6-tetrahydropyridin-4-yl)-7-[(R)-1-(2,6-dichloro-3-fluorophenyl)-ethoxy]-furo[3,2-c]pyridin-6-ylamine] | 500 to 5000 | 500 to 5000 |
| CCNC(=O)N1CCC(n2cc(-c3coc4c(O[C@H](C)c5c(Cl)ccc(F)c5Cl)c(N)ncc34)cn2)CC1 [Example 273, 4-(4-{6-Amino-7-[(1R)-1-(2,6-dichloro-3-fluorophenyl)ethoxy]furo[3,2-c]pyridin-3-yl}-1H-pyrazol-1-yl)-N-ethylpiperidine-1-carboxamide] | 500 to 5000 | 500 to 5000 |

Continued, values first:

| IC50 [1] [nM] | IC50 [2] [nM] | Compound |
| --- | --- | --- |
| 500 to 5000 | 500 to 5000 | C[C@@H](Oc1c(N)ncc2c(-c3ccc(C(=O)NCCCO)cc3)coc12)c1c(Cl)ccc(F)c1Cl [Example 288, 4-{6-Amino-7-[(R)-1-(2,6-dichloro-3-fluorophenyl)ethoxy]furo[3,2-c]pyridin-3-yl}-N-(3-hydroxypropyl)benzamide] |
| 500 to 5000 | < 500 | C[C@@H](Oc1c(N)ncc2c(C3=CCN(S(C)(=O)=O)CC3)coc12)c1c(Cl)ccc(F)c1Cl [Example 46, 7-[(R)-1-(2,6-Dichloro-3-fluorophenyl)-ethoxy]-3-(1-methanesulfonyl-1,2,3,6-tetrahydropyridin-4-yl)-furo[3,2-c]pyridin-6-ylamine] |
| 500 to 5000 | 500 to 5000 | C[C@@H](Oc1c(N)ncc2c(-c3cncnc3)coc12)c1c(Cl)ccc(F)c1Cl [Example 112, 7-[(R)-1-(2,6-Dichloro-3-fluorophenyl)ethoxy]-3-pyrimidin-5-ylfuro[3,2-c]pyridin-6-ylamine] |
| < 500 | < 500 | Nc1ncc2c(-c3cnn(C4CCNCC4)c3)coc2c1OC(c1c(F)ccc(F)c1Cl)C1CC1 (stereo not drawn) [Example 367, 7-[(2-Chloro-3,6-difluorophenyl)cyclopropylmethoxy]-3-(1-piperidin-4-yl-1H-pyrazol-4-yl)furo[3,2-c]pyridin-6-ylamine] |
| 500 to 5000 | 500 to 5000 | C[C@@H](Oc1c(N)ncc2c(-c3cnc(N4CCN(C)CC4)nc3)coc12)c1c(Cl)ccc(F)c1Cl [Example 123, 7-[(R)-1-(2,6-Dichloro-3-fluorophenyl)ethoxy]-3-[2-(4-methylpiperazin-1-yl)pyrimidin-5-yl]furo[3,2-c]pyridin-6-ylamine] |
| 500 to 5000 | 500 to 5000 | C[C@@H](Oc1c(N)ncc2c(-c3cnn(C)c3)coc12)c1c(Cl)ccc(F)c1Cl [Example 4, 7-[(R)-1-(2,6-Dichloro-3-fluorophenyl)-ethoxy]-3-(1-methyl-1H-pyrazol-4-yl)-furo[3,2-c]pyridin-6-ylamine] |
| 500 to 5000 | < 500 | C[C@@H](Oc1c(N)ncc2c(C(=O)NC3CCNCC3)coc12)c1c(Cl)ccc(F)c1Cl [Example 182, 6-Amino-7-[(R)-1-(2,6-dichloro-3-fluorophenyl)ethoxy]furo[3,2-c]pyridine-3-carboxylic acid piperidin-4-ylamide] |
| 500 to 5000 | 500 to 5000 | C[C@@H](Oc1c(N)ncc2c(-c3cc(C(=O)N(C)C)cs3)coc12)c1c(Cl)ccc(F)c1Cl [Example 328, 5-{6-Amino-7-[(R)-1-(2,6-dichloro-3-fluorophenyl)ethoxy]furo[3,2-c]pyridin-3-yl}thiophene-3-carboxylic acid Dimethylamide] |
| < 500 | < 500 | CNCC(=O)N1CC=C(c2coc3c(O[C@H](C)c4c(Cl)ccc(F)c4Cl)c(N)ncc23)CC1 [Example 250, 1-[4-{6-Amino-7-[(1R)-1-(2,6-dichloro-3-fluorophenyl)ethoxy]furo[3,2-c]pyridin-3-yl}-3,6-dihydropyridin-1(2H)-yl]-2-(methylamino)ethanone] |
| < 500 | < 500 | C[C@@H](Oc1c(N)ncc2c(C3=CCN(CC4CCCCC4)CC3)coc12)c1c(Cl)ccc(F)c1Cl [Example 38, 3-(1-Cyclohexylmethyl-1,2,3,6-tetrahydropyridin-4-yl)-7-[(R)-1-(2,6-dichloro-3-fluorophenyl)-ethoxy]-furo[3,2-c]pyridin-6-ylamine] |
| < 500 | 500 to 5000 | CC(Oc1c(N)ncc2c(-c3cnn(C4CCNCC4)c3)coc12)c1cccc(-c2ccn[nH]2)c1 (stereo not drawn) [Example 446] |
| < 500 | < 500 | CC(Oc1c(N)ncc2c(-c3cnn(C4CCNCC4)c3)coc12)c1cc(F)cc(Br)c1 (stereo not drawn) [Example 434, 7-[1-(3-Bromo-5-fluorophenyl)ethoxy]-3-(1-piperidin-4-yl-1H-pyrazol-4-yl)furo[3,2-c]pyridin-6-ylamine] |
